# Source: ChEMBL document CHEMBL1201862, “PubChem BioAssay data set” (2004)
# Active and inactive are the calls of the source.
# What was measured:
# [1] = target: T1, Bcl-2-related protein A1 (Mus musculus, UniProt Q07440); test: Bfl-1 inhibitors blocking BH3 peptide binding, confirmation, biochemical, TR-FRET, mouse Bfl-1 (AID 621);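 note: TR-FRET binding of GST-Bfl-1 to FITC-labelled Bid peptide via terbium antibody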
# T1 sequence (Q07440 whole entry): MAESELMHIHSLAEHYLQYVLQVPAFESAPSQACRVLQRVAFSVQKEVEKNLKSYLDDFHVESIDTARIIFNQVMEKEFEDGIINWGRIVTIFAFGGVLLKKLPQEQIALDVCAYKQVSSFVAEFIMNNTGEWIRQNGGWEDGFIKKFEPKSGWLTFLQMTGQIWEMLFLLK
# [2] = target: Glyceraldehyde-3-phosphate dehydrogenase (Homo sapiens, UniProt P04406)
# [3] = target: T1, Bcl-2-related protein A1; test: Bfl-1 binding inhibitors, SAR follow-up, biochemical, fluorescence polarization (AID 1070)
# [4] = target: Protein Tat (Human immunodeficiency virus type 1 group M subtype B (isolate HXB2)(HIV-1), UniProt P04608); type: functional;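 note: tat binding to TAR RNA read out by fluorescence polarization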
# [5] = cells; conditions: A549
# [6] = target: Aryl hydrocarbon receptor (Homo sapiens, UniProt P35869); test: Luminescence-based cell-based high throughput dose response assay for activators of the Aryl Hydrocarbon Receptor (AHR). [Related pubchem assays: 2796 (Primary screen (AHR activators in singlicate)), 2845 (Confirmation screen (AHR activators in triplicate)), 434939 (Counterscreen (PXR activators in triplicate)), 2804 (Summary (AHR activators))]; type: ADME
# [7] = MC4R antagonists, dose response, counter-screen for LGR2 antagonist project, cell-based, plate reader, cherry pick (AID 743444); type: functional;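 note: transfected HEK 293 cells stimulated with alpha-MSH peptide; potency of inhibitors of the alpha-MSH evoked signal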
# [8] = LGR2 antagonists, dose response, cell-based, HEK293, CRE-luciferase reporter, cherry pick, set 2 (AID 743343); type: functional;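 note: transfected cells were stimulated with diluted bursicon conditioned medium after compound addition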
# [9] = HEK293 cell cytotoxicity, dose response, cytotoxicity control, plate reader, cherry-picked samples (AID 743446); type: functional, cell-based
# [10] = A549 cell cytotoxicity, dose response, cytotoxicity control, plate reader, cherry-pick, antagonist series (AID 743412); type: functional, cell-based
# [11] = THP-1 cell cytotoxicity, dose response, cytotoxicity control for Vif-APOBEC3G degradation inhibitor project, THP-1 cells (AID 1117359); type: functional; conditions: Human immunodeficiency virus 1, THP-1
# [12] = target: Luciferin 4-monooxygenase (Photinus pyralis, UniProt P08659); test: Counter Screen for Luciferase-based Assay Positives. [Related pubchem assays: 620, 618, 411 ]
# [13] = system: HT-1080; test: cytotoxicity in HT1080 fibrosarcoma cells, cell-based, fluorescence readout (AID 620); type: functional; conditions: Homo sapiens
# [14] = target: T2, COUP transcription factor 2 (Homo sapiens, UniProt P24468); test: Luminescence-based cell-based high throughput dose response assay to identify inhibitors of COUP-TFII (NR2F2).; type: functional;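 note: HEK293 cells transiently cotransfected with COUP-TFII expression vector and reporter; luciferase reporter luminescence driven by COUP-TFII from the pX2-168 reporter plasmid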
# T2 sequence (P24468 whole entry): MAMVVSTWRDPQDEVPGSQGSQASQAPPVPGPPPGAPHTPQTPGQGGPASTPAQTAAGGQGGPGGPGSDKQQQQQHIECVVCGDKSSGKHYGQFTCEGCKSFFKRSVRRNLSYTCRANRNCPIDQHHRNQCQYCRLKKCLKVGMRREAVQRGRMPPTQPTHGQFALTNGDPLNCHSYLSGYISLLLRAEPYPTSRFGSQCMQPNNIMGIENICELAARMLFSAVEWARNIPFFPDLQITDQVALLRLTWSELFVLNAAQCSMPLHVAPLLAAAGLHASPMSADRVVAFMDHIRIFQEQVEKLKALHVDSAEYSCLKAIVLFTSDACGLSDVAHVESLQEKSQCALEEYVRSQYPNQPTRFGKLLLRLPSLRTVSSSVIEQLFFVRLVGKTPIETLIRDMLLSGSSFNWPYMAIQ
# [15] = CEM21 lymphoblast cell cytotoxicity, dose response, cytotoxicity control for viral fusion inhibitor project, CellTiter-Glo luminescence, cherry-picked (AID 652042); type: functional, cell-based;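 note: potency for signal decrease meaning cytotoxicity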
# [16] = inhibitors of clade B AD8 Env fusion, dose response, cell-based, cherry-pick (AID 652062); type: functional;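 note: luciferase signal from cell-cell fusion driven by HIV-1 clade B AD8 Env; potency is for inhibitors of fusion seen as a drop in luminescence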
# [17] = ZM109 Env clade C HIV-1 fusion inhibitors, dose response, HeLa effector, CEM target cells, luciferase, cherry-pick (AID 652058); type: functional, cell-based
# [18] = system: H9c2; test: cells; type: functional, cell-based; conditions: Rattus norvegicus, H9c2, Myocardium;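 note: confirmatory concentration-response retest of ultra-high-throughput screening hits for modulation of myocardial damage; cell death induced by hydrogen peroxide oxidative stress; compound pretreatment for 60 min then peroxide exposure for 2 h; potency is for protecting the cells against peroxide damage rather than for killing them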
# Sequence of Aryl hydrocarbon receptor (P35869 whole entry): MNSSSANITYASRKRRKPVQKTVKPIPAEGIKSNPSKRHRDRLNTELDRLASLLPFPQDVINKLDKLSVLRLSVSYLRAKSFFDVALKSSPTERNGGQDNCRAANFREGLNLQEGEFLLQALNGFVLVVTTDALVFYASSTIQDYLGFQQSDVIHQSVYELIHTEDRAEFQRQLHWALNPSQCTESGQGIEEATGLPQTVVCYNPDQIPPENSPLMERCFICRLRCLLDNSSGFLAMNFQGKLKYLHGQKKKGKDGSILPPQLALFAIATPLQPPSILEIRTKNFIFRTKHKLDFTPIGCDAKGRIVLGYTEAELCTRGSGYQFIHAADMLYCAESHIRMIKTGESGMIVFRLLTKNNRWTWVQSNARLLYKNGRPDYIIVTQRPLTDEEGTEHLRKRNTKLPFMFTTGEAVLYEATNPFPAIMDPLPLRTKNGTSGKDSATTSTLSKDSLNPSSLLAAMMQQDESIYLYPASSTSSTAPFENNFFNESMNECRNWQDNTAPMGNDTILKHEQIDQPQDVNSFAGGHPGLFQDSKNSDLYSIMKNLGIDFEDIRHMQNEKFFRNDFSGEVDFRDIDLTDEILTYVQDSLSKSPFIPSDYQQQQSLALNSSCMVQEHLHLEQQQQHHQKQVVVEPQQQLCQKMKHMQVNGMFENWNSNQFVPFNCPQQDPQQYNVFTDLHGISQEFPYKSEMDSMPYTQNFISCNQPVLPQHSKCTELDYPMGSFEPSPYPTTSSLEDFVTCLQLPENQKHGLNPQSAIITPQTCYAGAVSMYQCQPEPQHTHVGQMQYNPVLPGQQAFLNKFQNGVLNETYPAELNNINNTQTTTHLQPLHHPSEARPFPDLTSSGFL
# Sequence of Glyceraldehyde-3-phosphate dehydrogenase (P04406 whole entry): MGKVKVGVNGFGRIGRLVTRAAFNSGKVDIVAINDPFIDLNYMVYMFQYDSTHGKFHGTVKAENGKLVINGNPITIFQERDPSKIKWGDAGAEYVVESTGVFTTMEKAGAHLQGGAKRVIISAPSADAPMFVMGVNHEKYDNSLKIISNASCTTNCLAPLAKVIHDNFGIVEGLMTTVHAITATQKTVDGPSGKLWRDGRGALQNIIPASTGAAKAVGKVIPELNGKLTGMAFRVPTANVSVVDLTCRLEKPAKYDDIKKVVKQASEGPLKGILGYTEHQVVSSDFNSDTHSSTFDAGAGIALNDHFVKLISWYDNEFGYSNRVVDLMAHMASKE
# Sequence of Protein Tat (P04608 whole entry): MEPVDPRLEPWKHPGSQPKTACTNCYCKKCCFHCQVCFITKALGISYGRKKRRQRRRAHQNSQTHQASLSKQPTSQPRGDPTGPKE
# Sequence of Luciferin 4-monooxygenase (P08659 whole entry): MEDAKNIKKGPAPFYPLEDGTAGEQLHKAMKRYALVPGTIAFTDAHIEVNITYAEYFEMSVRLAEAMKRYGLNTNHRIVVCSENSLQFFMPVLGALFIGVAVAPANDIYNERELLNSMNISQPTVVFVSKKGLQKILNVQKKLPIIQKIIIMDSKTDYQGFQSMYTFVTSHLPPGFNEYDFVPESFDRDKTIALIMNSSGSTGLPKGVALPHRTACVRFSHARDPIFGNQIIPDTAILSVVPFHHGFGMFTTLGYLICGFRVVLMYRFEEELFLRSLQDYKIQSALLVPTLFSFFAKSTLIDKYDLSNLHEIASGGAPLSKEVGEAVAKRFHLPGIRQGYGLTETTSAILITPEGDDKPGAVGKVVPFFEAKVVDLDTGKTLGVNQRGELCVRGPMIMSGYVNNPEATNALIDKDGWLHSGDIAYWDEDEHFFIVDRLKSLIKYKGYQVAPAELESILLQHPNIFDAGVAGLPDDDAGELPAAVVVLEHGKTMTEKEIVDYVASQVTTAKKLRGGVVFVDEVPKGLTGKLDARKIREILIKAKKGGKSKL
smiles,measurement,setting,value
O=C1C(Cl)=C(N2CCN(Cc3ccccc3)CC2)C(=O)N1c1ccc(Cl)c(Cl)c1,IC50,[1],1.64 µM (active)
same,IC50,[2],> 100 µM (not active)
same,IC50,[3],1.62 µM (active)
Cc1cc(C(=O)CSc2nnc(-c3ccccc3)n2Cc2ccc3c(c2)OCO3)c(C)n1C,IC50,[4],> 100 µM (active)
COc1ccc(C2CC(c3ccccc3)=NN2c2ccc(C(N)=O)cc2)cc1 (stereo not drawn),AC50,[5],39.1 µM (active)
CC(=O)c1ccc(NC(=O)c2cc(Cl)nc3ccccc23)cc1,EC50,[6],1.66 µM (active)
CN(C)c1nc(N)nc(-c2nc3ccccc3s2)n1,EC50,[6],0.845 µM (active)
Cc1cc(-c2ccccc2)nc(S(C)(=O)=O)n1,IC50,[1],> 100 µM (not active)
same,IC50,[2],> 100 µM (not active)
same,IC50,[3],> 100 µM (not active)
COc1ccc(Nc2ncc(F)c(N3CCOCC3)n2)cc1,AC50,[7],10.2 µM (active)
same,AC50,[8],18 µM (active)
same,AC50,[9],> 52 µM (inactive)
same,AC50,[10],> 52 µM (inactive)
same,CC50,[11],> 40 µM (active)
COc1ccc(-n2ncc3c(NCC(C)C)ncnc32)cc1,EC50,[12],1.17 µM (active)
same,EC50,[13],> 50 µM (not active)
Cc1ccc(Cn2ncc3c(N4CCN(Cc5ccc(Cl)cc5)CC4)ncnc32)cc1,IC50,[14],10.6 µM (inactive)
same,AC50,[15],52 µM (active)
same,AC50,[16],3.86 µM (active)
same,AC50,[17],606 nM (active)
CCOc1ccc2nc(O)c(CN(Cc3nnnn3Cc3ccco3)C3CCCCC3)cc2c1,CC50,[11],> 40 µM (active)
same,IC50,[18],25.5 µM (active)
